Assay results reported in PubChem BioAssay AID328 (DTP/NCI, 2004).
Several values for one entry are separate records, joined by “and”; a condition that tells them apart may be missing. Equal values may be shown once. Inconclusive results and toxic doses are left out.

Tested on: BDF1 mice, P388 leukemia ip, median survival T/C
Assay: NCI In Vivo Anticancer Drug Screen. Data for tumor model P388 Leukemia (intraperitoneal) in B6D2F1 (BDF1) mice
Settings: endpoint: median survival time, higher = longer survival
Procedure, shortened: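 Transplantable tumour in mice; compound vs vehicle dosing; survival scored; ratio of treated to control reported.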

SMILES: COc1cccc2c1C(=O)c1c(O)c3c(c(O)c1C2=O)C[C@@](O)(C(C)=O)C[C@@H]3OC1CC(N)C(O)C(C)O1 (stereo partly specified)
- T/C (dose: 0.03 mg/kg/injection, schedule: Q01DX010 (ip), vehicle: saline): 108 % of control
- T/C (dose: 0.06 mg/kg/injection, schedule: Q## X020 (ip), vehicle: saline): 108 % of control
- T/C (dose: 0.13 mg/kg/injection, schedule: Q01DX010 (ip), vehicle: saline): 150 % of control
- T/C (dose: 0.13 mg/kg/injection, schedule: Q03HX024 (ip), vehicle: saline): 200 % of control
- T/C (dose: 0.13 mg/kg/injection, schedule: Q## X020 (ip), vehicle: saline): 100 % of control
- T/C (dose: 0.21 mg/kg/injection, schedule: Q03HX024 (ip), vehicle: saline): 210 % of control
- T/C (dose: 0.21 mg/kg/injection, schedule: Q## X010 (ip), vehicle: saline): 190 % of control
- T/C (dose: 0.21 mg/kg/injection, schedule: Q## X020 (ip), vehicle: saline): 195 % of control
- T/C (dose: 0.25 mg/kg/injection, schedule: Q01DX009 (ip), vehicle: saline): 208 % of control
- T/C (dose: 0.25 mg/kg/injection, schedule: Q01DX010 (ip), vehicle: clinical formulation): 159 % of control
- T/C (dose: 0.36 mg/kg/injection, schedule: Q03HX024 (ip), vehicle: saline): 205 % of control
- T/C (dose: 0.36 mg/kg/injection, schedule: Q04DX003 (ip), vehicle: saline): 180 % of control
- T/C (dose: 0.36 mg/kg/injection, schedule: Q## X020 (ip), vehicle: saline): 200 % of control
- T/C (dose: 0.38 mg/kg/injection, schedule: Q01DX010 (ip), vehicle: saline): 189 % of control
- T/C (dose: 0.5 mg/kg/injection, schedule: Q01DX009 (ip), vehicle: saline): 170 % of control
- T/C (dose: 0.5 mg/kg/injection, schedule: Q01DX010 (ip), vehicle: clinical formulation): 168 % of control
- T/C (dose: 0.5 mg/kg/injection, schedule: Q01DX010 (ip), vehicle: water): 175 % of control
- T/C (dose: 0.5 mg/kg/injection, schedule: Q03HX008 (ip), vehicle: water): 181 % of control
- T/C (dose: 0.5 mg/kg/injection, schedule: Q06HX004 (ip), vehicle: water): 190 % of control
- T/C (dose: 0.5 mg/kg/injection, schedule: Q## X020 (ip), vehicle: saline): 100 % of control and 207 % of control
- T/C (dose: 0.6 mg/kg/injection, schedule: Q03HX024 (ip), vehicle: saline): 235 % of control
- T/C (dose: 0.6 mg/kg/injection, schedule: Q04DX003 (ip), vehicle: saline): 215 % of control
- T/C (dose: 0.6 mg/kg/injection, schedule: Q## X010 (ip), vehicle: saline): 210 % of control
- T/C (dose: 0.6 mg/kg/injection, schedule: Q## X020 (ip), vehicle: saline): 190 % of control
- T/C (dose: 0.63 mg/kg/injection, schedule: Q01DX010 (ip), vehicle: saline): 195 % of control and 200 % of control
- T/C (dose: 0.75 mg/kg/injection, schedule: Q01DX010 (ip), vehicle: saline): 205 % of control
- T/C (dose: 0.78 mg/kg/injection, schedule: Q04DX002 (ip), vehicle: saline): 172 % of control
- T/C (dose: 1.0 mg/kg/injection, schedule: Q01DX009 (ip), vehicle: saline): 108 % of control
- T/C (dose: 1.0 mg/kg/injection, schedule: Q01DX010 (ip), vehicle: clinical formulation): 163 % of control
- T/C (dose: 1.0 mg/kg/injection, schedule: Q01DX010 (ip), vehicle: water): 195 % of control
- T/C (dose: 1.0 mg/kg/injection, schedule: Q03HX008 (ip), vehicle: water): 204 % of control
- T/C (dose: 1.0 mg/kg/injection, schedule: Q03HX024 (ip), vehicle: saline): 115 % of control
- T/C (dose: 1.0 mg/kg/injection, schedule: Q04DX003 (ip), vehicle: water): 115 % of control
- T/C (dose: 1.0 mg/kg/injection, schedule: Q06HX004 (ip), vehicle: water): 190 % of control
- T/C (dose: 1.0 mg/kg/injection, schedule: Q## X010 (ip), vehicle: saline): 200 % of control
- T/C (dose: 1.0 mg/kg/injection, schedule: Q## X020 (ip), vehicle: saline): 287 % of control and 108 % of control and 209 % of control
- T/C (dose: 1.25 mg/kg/injection, schedule: Q01DX009 (ip), vehicle: water): 176 % of control
- T/C (dose: 1.25 mg/kg/injection, schedule: Q01DX010 (ip), vehicle: saline): 227 % of control and 215 % of control
- T/C (dose: 1.3 mg/kg/injection, schedule: Q01DX009 (ip), vehicle: clinical formulation): 231 % of control
- T/C (dose: 1.5 mg/kg/injection, schedule: Q01DX010 (ip), vehicle: saline): 210 % of control
- T/C (dose: 1.56 mg/kg/injection, schedule: Q01DX009 (ip), vehicle: water): 157 % of control and 196 % of control
- T/C (dose: 1.56 mg/kg/injection, schedule: Q04DX002 (ip), vehicle: saline): 209 % of control
- T/C (dose: 1.7 mg/kg/injection, schedule: Q04DX003 (ip), vehicle: saline): 225 % of control
- T/C (dose: 1.7 mg/kg/injection, schedule: Q## X010 (ip), vehicle: saline): 165 % of control
- T/C (dose: 1.7 mg/kg/injection, schedule: Q## X020 (ip), vehicle: saline): 180 % of control
- T/C (dose: 1.8 mg/kg/injection, schedule: Q01DX009 (ip), vehicle: water): 161 % of control
- T/C (dose: 2.0 mg/kg/injection, schedule: Q01DX009 (ip), vehicle: clinical formulation): 257 % of control
- T/C (dose: 2.0 mg/kg/injection, schedule: Q01DX010 (ip), vehicle: clinical formulation): 172 % of control
- T/C (dose: 2.0 mg/kg/injection, schedule: Q01DX010 (ip), vehicle: water): 95 % of control
- T/C (dose: 2.0 mg/kg/injection, schedule: Q03HX008 (ip), vehicle: water): 95 % of control
- T/C (dose: 2.0 mg/kg/injection, schedule: Q06HX004 (ip), vehicle: water): 195 % of control
- T/C (dose: 2.5 mg/kg/injection, schedule: Q01DX001 (ip), vehicle: saline): 109 % of control and 215 % of control
- T/C (dose: 2.5 mg/kg/injection, schedule: Q01DX009 (ip), vehicle: water): 97 % of control
- T/C (dose: 2.9 mg/kg/injection, schedule: Q04DX003 (ip), vehicle: saline): 200 % of control
- T/C (dose: 3.0 mg/kg/injection, schedule: Q01DX009 (ip), vehicle: clinical formulation): 157 % of control
- T/C (dose: 3.0 mg/kg/injection, schedule: Q01DX009 (ip), vehicle: water): 173 % of control
- T/C (dose: 3.0 mg/kg/injection, schedule: Q01DX010 (ip), vehicle: saline): 189 % of control
- T/C (dose: 3.13 mg/kg/injection, schedule: Q01DX009 (ip), vehicle: water): 90 % of control
- T/C (dose: 3.13 mg/kg/injection, schedule: Q04DX002 (ip), vehicle: saline): 169 % of control and 181 % of control
- T/C (dose: 4.0 mg/kg/injection, schedule: Q01DX010 (ip), vehicle: clinical formulation): 104 % of control
- T/C (dose: 4.0 mg/kg/injection, schedule: Q01DX010 (ip), vehicle: water): 90 % of control
- T/C (dose: 4.5 mg/kg/injection, schedule: Q01DX009 (ip), vehicle: clinical formulation): 100 % of control
- T/C (dose: 5.0 mg/kg/injection, schedule: Q01DX010 (ip), vehicle: saline): 120 % of control
- T/C (dose: 6.25 mg/kg/injection, schedule: Q04DX002 (ip), vehicle: saline): 100 % of control
- T/C (dose: 13.33 mg/kg/injection, schedule: Q04DX003 (ip), vehicle: water): 100 % of control and 207 % of control
- T/C (dose: 16.0 mg/kg/injection, schedule: Q04DX009 (ip), vehicle: water): 96 % of control
- T/C (dose: 78.0 micrograms/kg/injection, schedule: Q01DX010 (ip), vehicle: saline): 165 % of control
- T/C (dose: 125.0 micrograms/kg/injection, schedule: Q01DX010 (ip), vehicle: clinical formulation): 150 % of control
- T/C (dose: 156.0 micrograms/kg/injection, schedule: Q01DX010 (ip), vehicle: saline): 185 % of control
- T/C (dose: 250.0 micrograms/kg/injection, schedule: Q01DX010 (ip), vehicle: clinical formulation): 183 % of control
- T/C (dose: 313.0 micrograms/kg/injection, schedule: Q01DX010 (ip), vehicle: saline): 185 % of control
- T/C (dose: 500.0 micrograms/kg/injection, schedule: Q01DX010 (ip), vehicle: clinical formulation): 195 % of control
- T/C (dose: 625.0 micrograms/kg/injection, schedule: Q01DX010 (ip), vehicle: saline): 200 % of control
- T/C (dose: 1300.0 micrograms/kg/injection, schedule: Q04DX003 (ip), vehicle: water): 174 % of control
- T/C (dose: 2160.0 micrograms/kg/injection, schedule: Q04DX003 (ip), vehicle: water): 162 % of control
- T/C (dose: 3600.0 micrograms/kg/injection, schedule: Q04DX003 (ip), vehicle: water): 117 % of control
